Experimental data: PubChem BioAssay AID330 (DTP/NCI, 2004)
“And” between values parts separate entries of the source, which are not always exact repeats. Equal values may be shown once. Toxic doses and inconclusive results are not listed.

Test system: P388 leukemia ip, CD2F1 mice, survival T/C
Test: NCI In Vivo Anticancer Drug Screen. Data for tumor model P388 Leukemia (intraperitoneal) in CD2F1 (CDF1) mice
Conditions: endpoint: median survival time, higher = longer survival
Summary of the method: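 Mice carrying the transplanted tumor received test compound or vehicle. Survival was recorded in each group, and the value is the treated-group measurement divided by that of the vehicle-treated control group.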

[1] = dose: 100.0 mg/kg/injection, schedule: Q01DX009 (ip), vehicle: saline
[2] = dose: 100.0 mg/kg/injection, schedule: Q04DX003 (ip), vehicle: saline
[3] = dose: 200.0 mg/kg/injection, schedule: Q01DX009 (ip), vehicle: saline
[4] = dose: 60.0 mg/kg/injection, schedule: Q01DX005 (ip), vehicle: saline with Tween-80
[5] = dose: 120.0 mg/kg/injection, schedule: Q01DX005 (ip), vehicle: saline with Tween-80
[6] = dose: 240.0 mg/kg/injection, schedule: Q01DX005 (ip), vehicle: saline with Tween-80
[7] = dose: 12.5 mg/kg/injection, schedule: Q01DX009 (ip), vehicle: saline with Tween-80
[8] = dose: 25.0 mg/kg/injection, schedule: Q01DX009 (ip), vehicle: saline with Tween-80
[9] = dose: 50.0 mg/kg/injection, schedule: Q01DX009 (ip), vehicle: saline with Tween-80
[10] = dose: 100.0 mg/kg/injection, schedule: Q01DX009 (ip), vehicle: saline with Tween-80
[11] = dose: 100.0 mg/kg/injection, schedule: Q04DX003 (ip), vehicle: saline with Tween-80
[12] = dose: 200.0 mg/kg/injection, schedule: Q04DX003 (ip), vehicle: saline with Tween-80
[13] = dose: 50.0 mg/kg/injection, schedule: Q01DX005 (ip), vehicle: saline with Tween-80
[14] = dose: 100.0 mg/kg/injection, schedule: Q01DX005 (ip), vehicle: saline with Tween-80
[15] = dose: 200.0 mg/kg/injection, schedule: Q01DX005 (ip), vehicle: saline with Tween-80
[16] = dose: 200.0 mg/kg/injection, schedule: Q01DX009 (ip), vehicle: saline with Tween-80
[17] = dose: 50.0 mg/kg/injection, schedule: Q04DX003 (ip), vehicle: saline with Tween-80
[18] = dose: 100.0 mg/kg/injection, schedule: Q04DX003 (ip), vehicle: Klucel (hydroxypropylcellulose) (HPC)
[19] = dose: 200.0 mg/kg/injection, schedule: Q04DX003 (ip), vehicle: Klucel (hydroxypropylcellulose) (HPC)
[20] = dose: 400.0 mg/kg/injection, schedule: Q04DX003 (ip), vehicle: Klucel (hydroxypropylcellulose) (HPC)
[21] = dose: 50.0 mg/kg/injection, schedule: Q01DX009 (ip), vehicle: saline
[22] = dose: 50.0 mg/kg/injection, schedule: Q01DX005 (ip), vehicle: Klucel (hydroxypropylcellulose) (HPC)
[23] = dose: 100.0 mg/kg/injection, schedule: Q01DX005 (ip), vehicle: Klucel (hydroxypropylcellulose) (HPC)
[24] = dose: 200.0 mg/kg/injection, schedule: Q01DX005 (ip), vehicle: Klucel (hydroxypropylcellulose) (HPC)

Cc1cnc(C(N)=O)c(=O)[nH]1
T/C [1]: 95 % of control
T/C [2]: 105 % of control
T/C [3]: 100 % of control
T/C (dose: 200.0 mg/kg/injection, schedule: Q04DX003 (ip), vehicle: saline): 100 % of control
T/C (dose: 400.0 mg/kg/injection, schedule: Q01DX009 (ip), vehicle: saline): 100 % of control
T/C (dose: 400.0 mg/kg/injection, schedule: Q04DX003 (ip), vehicle: saline): 100 % of control

COC(=O)C1(C2(C(=O)OC)NC(=S)NC(=O)C2C#N)CCCC1=O (centres undefined)
T/C [4]: 108 % of control
T/C [5]: 105 % of control
T/C [6]: 105 % of control

OC(c1cc2cc(Br)ccc2c2cc(Br)ccc12)C1CCCCN1 (centres undefined)
T/C (dose: 6.25 mg/kg/injection, schedule: Q01DX009 (ip), vehicle: saline with Tween-80): 107 % of control
T/C [7]: 109 % of control
T/C [8]: 101 % of control

N#CS.[Cr+3].[NH-]CC[NH-].[NH-]CC[NH-].[NH-]CC[NH-]
T/C [9]: 104 % of control
T/C [10]: 95 % of control
T/C [11]: 100 % of control
T/C [12]: 104 % of control

O=C(Nc1ccccc1-c1ccccc1)c1ccc2c(c1)OCO2
T/C [13]: 97 % of control
T/C [14]: 111 % of control
T/C [15]: 97 % of control

CN1CCC(c2ccccc2)(c2ccccc2)C(=O)C1
T/C [9]: 100 % of control and 104 % of control
T/C [10]: 109 % of control and 111 % of control and 114 % of control
T/C [16]: 118 % of control and 123 % of control

CC(CCC(=O)O)C1CCC2C3CCC4CC(OC=O)CCC4(C)C3CC(OC=O)C12C (centres undefined)
T/C [9]: 95 % of control
T/C [17]: 105 % of control
T/C [10]: 90 % of control
T/C [11]: 100 % of control
T/C [16]: 90 % of control
T/C [12]: 100 % of control

O=C(O)c1cccc2c1C1CCC2c2cccc(C(=O)O)c21
T/C [18]: 108 % of control
T/C [19]: 107 % of control
T/C [20]: 106 % of control

CCOC(=O)CCC1(C(=O)OC)C(=O)CCCCC/C=C/1C(=O)OC (centres undefined)
T/C [10]: 113 % of control
T/C [16]: 104 % of control
T/C (dose: 400.0 mg/kg/injection, schedule: Q01DX009 (ip), vehicle: saline with Tween-80): 104 % of control

CC(=O)OCC1OC(n2cc(CBr)nn2)C(OC(C)=O)C(OC(C)=O)C1OC(C)=O (centres undefined)
T/C (dose: 6.25 mg/kg/injection, schedule: Q01DX009 (ip), vehicle: distilled water + Tween-80): 102 % of control and 94 % of control
T/C (dose: 6.25 mg/kg/injection, schedule: Q01DX009 (ip), vehicle: saline): 93 % of control
T/C (dose: 12.5 mg/kg/injection, schedule: Q01DX009 (ip), vehicle: distilled water + Tween-80): 106 % of control and 115 % of control
T/C (dose: 25.0 mg/kg/injection, schedule: Q01DX009 (ip), vehicle: distilled water + Tween-80): 115 % of control
T/C (dose: 50.0 mg/kg/injection, schedule: Q01DX009 (ip), vehicle: distilled water + Tween-80): 118 % of control
T/C [21]: 163 % of control
T/C (dose: 50.0 mg/kg/injection, schedule: Q04DX003 (ip), vehicle: saline): 101 % of control
T/C (dose: 100.0 mg/kg/injection, schedule: Q01DX009 (ip), vehicle: distilled water + Tween-80): 90 % of control
T/C [2]: 99 % of control

CCN1C(SC)=NC(=O)C1(c1ccc(C)cc1)c1ccc(C)cc1
T/C [22]: 100 % of control
T/C [23]: 106 % of control
T/C [24]: 98 % of control

O=C(O)CSCCCCCSCC(=O)O
T/C [21]: 105 % of control
T/C [1]: 106 % of control
T/C [3]: 106 % of control

COC(=O)c1ccccc1NC(CCN1CCN(CCC(=NC(C)(C)C)Nc2ccccc2C(=O)OC)CC1)=NC(C)(C)C
T/C (dose: 50.0 mg/kg/injection, schedule: Q01DX009 (ip), vehicle: Klucel (hydroxypropylcellulose) (HPC)): 93 % of control
T/C (dose: 100.0 mg/kg/injection, schedule: Q01DX009 (ip), vehicle: Klucel (hydroxypropylcellulose) (HPC)): 96 % of control
T/C (dose: 200.0 mg/kg/injection, schedule: Q01DX009 (ip), vehicle: Klucel (hydroxypropylcellulose) (HPC)): 92 % of control

COc1ccc(CC(N)C(=O)OCc2ccccc2)cc1N(CCCl)CCCl (centres undefined)
T/C (dose: 1.56 mg/kg/injection, schedule: Q01DX009 (ip), vehicle: suspension in saline): 97 % of control
T/C (dose: 3.12 mg/kg/injection, schedule: Q01DX009 (ip), vehicle: suspension in saline): 95 % of control
T/C (dose: 6.25 mg/kg/injection, schedule: Q01DX009 (ip), vehicle: suspension in saline): 100 % of control

CN(C)C(=O)CC/C=C/C1C=CCCN1Cc1ccccc1 (centres undefined)
T/C (dose: 8.75 mg/kg/injection, schedule: Q01DX005 (ip), vehicle: Klucel (hydroxypropylcellulose) (HPC)): 103 % of control
T/C (dose: 17.5 mg/kg/injection, schedule: Q01DX005 (ip), vehicle: Klucel (hydroxypropylcellulose) (HPC)): 100 % of control
T/C (dose: 35.0 mg/kg/injection, schedule: Q01DX005 (ip), vehicle: Klucel (hydroxypropylcellulose) (HPC)): 100 % of control

CCOC(=O)CC1(C)NC(=O)NC1=O (centres undefined)
T/C (dose: 50.0 mg/kg/injection, schedule: Q04DX003 (ip), vehicle: Klucel (hydroxypropylcellulose) (HPC)): 108 % of control
T/C [18]: 100 % of control
T/C [19]: 101 % of control
T/C [20]: 100 % of control

O=C(/C=C/C1CCCC(O)C1)C1CCCCC1 (centres undefined)
T/C [13]: 91 % of control
T/C [14]: 89 % of control
T/C [15]: 91 % of control

O=C(Nc1ccc(Cl)cc1)Nc1nnc(COc2ccccc2)o1
T/C (dose: 15.0 mg/kg/injection, schedule: Q01DX005 (ip), vehicle: saline with Tween-80): 90 % of control
T/C (dose: 30.0 mg/kg/injection, schedule: Q01DX005 (ip), vehicle: saline with Tween-80): 88 % of control
T/C [4]: 89 % of control and 90 % of control
T/C [5]: 90 % of control
T/C [6]: 87 % of control

NC(CCS(=O)(=O)NO)C(=O)O (centres undefined)
T/C (dose: 12.5 mg/kg/injection, schedule: Q01DX009 (ip), vehicle: water): 89 % of control
T/C (dose: 25.0 mg/kg/injection, schedule: Q01DX009 (ip), vehicle: water): 99 % of control
T/C (dose: 50.0 mg/kg/injection, schedule: Q01DX009 (ip), vehicle: water): 90 % of control
T/C (dose: 100.0 mg/kg/injection, schedule: Q01DX009 (ip), vehicle: water): 102 % of control
T/C (dose: 200.0 mg/kg/injection, schedule: Q01DX009 (ip), vehicle: water): 99 % of control

Cc1cnc(Sc2ncccc2[N+](=O)[O-])[nH]c1=O
T/C [22]: 107 % of control
T/C [23]: 93 % of control
T/C [24]: 97 % of control

CC(=O)c1c(C)cc2cc(O)cc(OC3OC(CO)C(O)C(O)C3O)c2c1O (centres undefined)
T/C (dose: 1.5 mg/kg/injection, schedule: Q01DX005 (ip), vehicle: saline + alcohol): 96 % of control
T/C (dose: 3.0 mg/kg/injection, schedule: Q01DX005 (ip), vehicle: saline + alcohol): 103 % of control
T/C (dose: 6.0 mg/kg/injection, schedule: Q01DX005 (ip), vehicle: saline + alcohol): 92 % of control
T/C (dose: 12.0 mg/kg/injection, schedule: Q01DX005 (ip), vehicle: saline + alcohol): 108 % of control and 94 % of control
T/C (dose: 24.0 mg/kg/injection, schedule: Q01DX005 (ip), vehicle: saline + alcohol): 100 % of control
T/C (dose: 48.0 mg/kg/injection, schedule: Q01DX005 (ip), vehicle: saline + alcohol): 99 % of control

NNc1cccc(C(F)(F)F)c1
T/C [7]: 100 % of control
T/C [8]: 90 % of control
T/C (dose: 25.0 mg/kg/injection, schedule: Q04DX003 (ip), vehicle: saline with Tween-80): 100 % of control
T/C [9]: 95 % of control
T/C [17]: 105 % of control
T/C [11]: 100 % of control

CN(C)CCCC1(O)c2ccccc2CCc2ccccc21
T/C (dose: 12.5 mg/kg/injection, schedule: Q01DX009 (ip), vehicle: saline): 103 % of control
T/C (dose: 25.0 mg/kg/injection, schedule: Q01DX009 (ip), vehicle: saline): 108 % of control
T/C [21]: 101 % of control and 119 % of control
T/C [1]: 94 % of control
